The record followed here is patent US12110281B2, “Catechol derivatives or salt thereof, processes for preparing the same, and pharmaceutical compositions comprising the same” (HEXAPHARMATEC CO., LTD., priority 2018, dated 2024).

Assay [1] deals with dimethylnitrosamine (DMN)-induced liver injury male SD rats. Kind of assay: Liver function-improving activities by oral administration in the liver injury model (1), 3 weeks. It counts as in vivo, rat. The note with it: serum, 25 mg/kg oral once a day. The source says:
The compounds according to the present invention were orally administered to dimethylnitrosamine (DMN)-induced liver injury male SD rats for 3 weeks, so as to evaluate liver function-improving activities. Specifically, 7-week-old male SD rats (Orient Bio, Korea) were accommodated to the laboratory environment at room temperature for 7 days. General symptoms were observed and then only healthy animals were used for the experiment. The rats were divided into 9 groups (n=5 for each group), the normal control group, the group to which only DMN is administered, and the groups to which both the compound of the present invention (the compounds of Example 2, 5, 6, 9, 10, 20 or 21) and DMN are administered. DMN was dissolved in purified water and then administered intraperitoneally at the dose of 10 mg/kg for 3 consecutive weeks (3 times per week, for 4 weeks). Blood samples were collected on Day 3 after the completion of the first-week liver injury inducement and then the ALT (Alanine Transaminase) values and the AST (Aspartate Transaminase) values were measured so as to confirm the liver injury thereof. The compounds of the present invention were administered for 3 weeks, i.e., from Day 4 after the completion of the first-week liver injury inducement to the DMN-administering period. The seven compounds of the present invention were dissolved in purified water or corn oil and then orally administered, using an oral sonde, at the dose of 25 mg/kg once a day for 3 weeks. Blood samples were collected on Day 0 (3 days after the completion of the first-week liver injury inducement) and Day 7, 14 and 21 after the administration of the test compounds. The collected blood was injected into a vacutainer tube containing a clot activator and then allowed to stand at room temperature for about 20 minutes so as to coagulate each blood sample. After centrifugation for 10 minutes, the resulting serums were subjected to blood-biochemical tests.

The test system is the same in assay [2]. Kind of assay: Liver function-improving activities by oral administration in the liver injury model (2), 4 weeks, serum ALT/AST and liver histology. Type of assay: in vivo, rat. The following applies: for ALT values (average value) / AST values (average value): serum. An excerpt: The compounds according to the present invention were orally administered to dimethylnitrosamine (DMN)-induced liver injury male SD rats for 4 weeks, so as to evaluate liver function-improving activities. Specifically, 7-week-old male SD rats (Orient Bio, Korea) were accommodated to the laboratory environment at room temperature for 7 days. General symptoms were observed and then only healthy animals were used for the experiment. The rats were divided into 3 groups (n=10 for each group), the normal control group, the group to which only DMN is administered, and the group to which both the compound of the present invention (the compound of Example 21) and DMN are administered. DMN was dissolved in purified water and then administered intraperitoneally at the dose of 10 mg/kg for 3 consecutive weeks (3 times per week, for 4 weeks). Blood samples were collected after the completion of the fourth-week liver injury inducement and then the ALT (Alanine Transaminase) values and the AST (Aspartate Transaminase) values were measured so as to confirm the liver injury thereof. The compound of the present invention was administered for 4 weeks, from Day 1 after the completion of the fourth-week liver injury inducement. The compound of the present invention (the compound of Example 21) was dissolved in purified water and then orally administered, using an oral sonde, at the dose of 25 mg/kg once a day for 4 weeks. Blood samples were collected on Day 0 (1 day after the completion of the fourth-week liver injury inducement) and Day 7, 14, 21 and 28 after the administration of the test compound. The collected blood was injected into a vacutainer tube containing a clot activator and then allowed to stand at room temperature for about 20 minutes so as to coagulate each blood sample. After centrifugation for 10 minutes, the resulting serums were subjected to blood-biochemical tests. In addition, at 24 hours after the last administration, an autopsy for hepatectomy and fixation was performed to prepare the tissue specimens thereof. After preparing the slides with the tissue specimens, hematoxylin and eosin (H&E) staining was performed thereon for microscopic observation of damages to liver tissue and inflammatory cell infiltrations in liver tissues. In addition, Masson's trichrome staining was also performed thereon for microscopic observation of collagen fiber depositions in liver tissues.
In addition, the results obtained by performing hematoxylin and eosin (H&E) staining and Masson's trichrome staining as described above are shown in FIGS. 3 and 4, respectively. From the results of FIG. 3, the degrees of damages to liver tissue and the degrees of inflammatory cell infiltrations in liver tissues were measured. And also, from the results of FIG. 4, the degrees of collagen fiber depositions in liver tissues were measured.

The subject of another assay is Hela cells. Kind of assay: Autophagy-inducing activities in Hela cells (Autophagy Detection Kit). It counts as cell-based. As for the experimental part: The autophagy-inducing activities of the compounds of the present invention were measured in Hela cells (Korean Cell Line Bank), using the Autophagy Detection Kit (ab139484, Abcam), according to the manufacturer's instructions. Specifically, 100 μL of EBSS (Earle's Balanced Salt Solution, WELGENE (LB 002-03)) containing 10% fetal bovine serum (FBS) was added to each well of a 96-well plate. Hela cells (1×10^4 cells) were added to each well and then incubated overnight at 37° C. in a CO2 incubator so as to stabilize the cells. The medium of each well containing the stabilized cells was replaced with a medium obtained by adding 10 nM or 100 nM of the compounds prepared in Examples (test compounds) to a EBSS containing 10% FBS. As a positive control, rapamycin was dissolved in dimethyl sulfoxide and then treated at a concentration of 500 nM per well. After the treatments, the cells were incubated at 37° C. in a CO2 incubator for 4 hours or 24 hours and then washed twice with the 1× assay buffer (prepared by adding 9 mL of distilled water to the 10× assay buffer). EBSS containing 5% fetal bovine serum, 1 μL/ml of Green detection reagent and 1 μL/ml of Nuclear stain was added thereto in the amount of 100 μL per well. The cells were incubated for 1 hour at 37° C. in a CO2 incubator and then washed twice with the 1× assay buffer. The absorbance values were measured at 488 nm, using a microplate reader (Cytation 3). The tests were repeated four times.
The absorbance values, which were obtained by treating Hela cells with the test compounds (100 nM) and the positive control (rapamycin, 500 nM) and then incubating for 4 hours as described in above, are shown in Table 1 below. And also, the absorbance values, which were obtained by treating Hela cells with the test compounds (10 nM or 100 nM) and the positive control (rapamycin, 500 nM) and then incubating for 24 hours as described in above, are shown in Table 2 below.

Setting [3] is: 0 week (Day 0, before administration of test compound).
[4] abbreviates: 3 weeks after the administration.
Where [5] appears, read: 4 weeks after the administration.
Where [6] appears, read: liver tissue, H&E staining, after 4 weeks 25 mg/kg oral, hydrochloride.
Where [7] appears, read: 0 week (Day 0, after 4 weeks DMN), 25 mg/kg oral once a day.
The mark [8] stands for this setting: 1 week, 25 mg/kg oral once a day after 4 weeks DMN.
[9] abbreviates: 2 weeks, 25 mg/kg oral once a day after 4 weeks DMN.
[10] abbreviates: 3 weeks, 25 mg/kg oral once a day after 4 weeks DMN.
[11] abbreviates: 4 weeks, 25 mg/kg oral once a day after 4 weeks DMN.

Molecules are shown by their SMILES. Values joined by “and” are separate entries in the source; they are usually repeats but may differ in a detail not shown here. Equal entries are not always repeated.

As to `CCN(CC)CCOc1ccc(-c2ccc(C(=O)NCC3(N(C)C)CCOCC3)s2)cc1OC.Cl.Cl` [Example 21, N-((4-(dimethylamino)tetrahydro-2H-pyran-4-yl)methyl)-5-(4-(2-diethylamino)ethoxy-3-methoxyphenyl)thiophene-2-carboxamide hydrochloride], the “ALT values (average value)” value is on record as 70.98 U/L in assay [1] (setting [3]); 98.84 U/L in assay [1] (1 week); 104.54 U/L in assay [1] (2 weeks); 101.18 U/L in assay [1] (3 weeks); 198.02 U/L in assay [2] (setting [7]); 92.71 U/L in assay [2] (setting [8]). Besides, the “ALT values (average value)” value in assay [2] (setting [9]) is 57.61 U/L; in assay [2] (setting [10]) it was 44.48 U/L; in assay [2] (setting [11]), 48.33 U/L. Moreover, the “AST values (average value)” value is reported as 142.10 U/L in assay [1] (setting [3]); 201.30 U/L in assay [1] (1 week); 208.26 U/L in assay [1] (2 weeks); 195.10 U/L in assay [1] (3 weeks); 329.92 U/L in assay [2] (setting [7]); 158.91 U/L in assay [2] (setting [8]). In addition, the figures for the “AST values (average value)” value in assay [2] (setting [9]), in assay [2] (setting [10]) and in assay [2] (setting [11]) were 107.61 U/L, 112.06 U/L and 110.45 U/L, respectively. Also, the “ALT decrease in comparison with the DMN-administered group” value in assay [2] (setting [4]) was 30%; in assay [2] (setting [5]), 26%. Besides, the “AST decrease in comparison with the DMN-administered group” value in assay [2] (setting [4]) worked out at 22%; in assay [2] (setting [5]), 30%. The “collagen fiber depositions in liver tissues reduced in comparison with the DMN-administered group” value in assay [2] (after 4 weeks) is “about 62%”. Besides, the “damages to liver tissue ameliorated in comparison with the DMN-administered group” value in assay [2] (after 4 weeks) is “about 50%”. For the same compound, the “inflammatory cell infiltrations in liver tissues ameliorated in comparison with the DMN-administered group” value in assay [2] (after 4 weeks) is reported as roughly 55%. Further, the Degenerative hepatocyte numbers in assay [2] (setting [6]) was 276.0 cells/1000 cells and 276.00 ± 16.64 cells/1000 cells. Also, in assay [2] (setting [6]), the Inflammatory cell numbers was 85.33 cells/mm^2 and 85.33 ± 8.41 cells/mm^2. Also, the “Collagen fiber occupied regions” value in assay [2] (liver tissue, Masson's trichrome staining, after 4 weeks 25 mg/kg oral, hydrochloride) is 10.98 %/mm^2 and 10.98 ± 1.33 %/mm^2.

In the case of `CCN(CC)CCOc1ccc(-c2ccc(C(=S)NC(C)C)s2)cc1OC.Cl` [Example 10, N-isopropyl-5-(4-(2-diethylamino)ethoxy-3-methoxyphenyl)thiophene-2-thiocarboxamide hydrochloride], the “Absorbance (at 488 nm)” value with Hela cells (test compound 10 nM, incubation for 24 hours) was found to be 1729.3; in the assay on Hela cells (test compound 100 nM, incubation for 4 hours), 1390.0; with Hela cells (test compound 100 nM, incubation for 24 hours) it was 1882.3. In addition, the “ALT values (average value)” value in assay [1] (setting [3]) is 67.46 U/L; in assay [1] (1 week), 85.06 U/L; in assay [1] (2 weeks), 102.94 U/L; in assay [1] (3 weeks), 102.94 U/L. Further, the “AST values (average value)” value in assay [1] (setting [3]) is on record as 145.00 U/L; in assay [1] (1 week), 202.52 U/L; in assay [1] (2 weeks) it was 218.60 U/L; in assay [1] (3 weeks), 199.34 U/L.
